Test results reported in patent US20250195521A1 (Revolution Medicines, Inc., priority 2020, published 2025).
Like-named read-outs stand apart in the source and are kept apart here.

What was measured:
[1] = target: KRAS G13D (Homo sapiens (Human), UniProt P01116+P62937, G13D); experiment: Ras-Raf disruption/FRET/MOA assay (BRAF RBD, Cyclophilin A); format: biochemical; details: read-out: KRAS G13D FRET data IC50
Method: (§1) Compound is present in plate wells as a 10-point 3-fold dilution series starting at a final concentration of 30 μM. After incubation at 25° C. for 3 hours, a mixture of Anti-His Eu—W1024 and anti-GST allophycocyanin is then added to assay sample wells at final concentrations of 10 nM and 50 nM, respectively, and the reaction incubated for an additional 1.5 hours. […] Compounds that facilitate disruption of a Ras: RAF complex are identified as those eliciting a decrease in the TR-FRET ratio relative to DMSO control wells.
(§2) Disruption of B-Raf Ras-Binding Domain (BRAF^RBD) Interaction with K-Ras by Compounds of the Invention (Also Called a FRET Assay or an MOA Assay)
(§3) Note—The following protocol describes a procedure for monitoring disruption of K-Ras G12C (GMP-PNP) binding to BRAF^RBD by a compound of the invention. This protocol may also be executed substituting other Ras proteins or nucleotides.
(§4) The purpose of this biochemical assay was to measure the ability of test compounds to facilitate ternary complex formation between a nucleotide-loaded K-Ras isoform and Cyclophilin A; the resulting ternary complex disrupts binding to a BRAF^RBD construct, inhibiting K-Ras signaling through a RAF effector. Data is reported as IC50 values.
(§5) In assay buffer containing 25 mM HEPES pH 7.3, 0.002% Tween20, 0.1% BSA, 100 mM NaCl and 5 mM MgCl2, tagless Cyclophilin A, His6-K-Ras-GMPPNP, and GST-BRAF^RBD were combined in a 384-well assay plate at final concentrations of 25 μM, 12.5 nM and 50 nM, respectively. Compound was present in plate wells as a 10-point 3-fold dilution series starting at a final concentration of 30 μM. After incubation at 25° C. for 3 hours, a mixture of Anti-His Eu—W1024 and anti-GST allophycocyanin was then added to assay sample wells at final concentrations of 10 nM and 50 nM, respectively, and the reaction incubated for an additional 1.5 hours. […] Compounds that facilitate disruption of a K-Ras: RAF complex were identified as those eliciting a decrease in the TR-FRET ratio relative to DMSO control wells.

[2] = target: NRAS G12C (Homo sapiens (Human), UniProt P01111+P62937, G12C); experiment: as above; format: biochemical; details: read-out: NRAS G12C FRET data IC50
Method: as §1, §2, §3, §4, §5

[3] = test system: Capan-1 cells (K-Ras G12V); experiment: CellTiter-Glo cell viability, Capan-1; format: cell-based, human; details: Homo sapiens, CAPAN-1, 120 h, read-out: Capan-1 Cell Viability IC50
Method: Note—The following protocol describes a procedure for monitoring cell viability of K-Ras mutant cancer cell lines in response to a compound of the invention. Other RAS isoforms may be employed, though the number of cells to be seeded will vary based on cell line used.
Test compounds (132.5 nl) were directly dispensed into the assay plates containing cells. […] On day 5, assay plates and their contents were equilibrated to room temperature for approximately 30 minutes. […] Luminescence was measured using the PerkinElmer Enspire. Data were normalized by the following: (Sample signal/Avg. DMSO)*100. The data were fit using a four-parameter logistic fit.

[4] = target: KRAS G12D (Homo sapiens (Human), UniProt P01116+P62937, G12D); experiment: Ras-Raf disruption/FRET/MOA assay (BRAF RBD, Cyclophilin A); format: biochemical; details: read-out: KRAS G12D FRET IC50
Method: as §1, §2, §3, §4, §5

[5] = target: KRAS G12S (Homo sapiens (Human), UniProt P01116+P62937, G12S); experiment: as above; format: biochemical; details: read-out: KRAS G12S FRET IC50
Method: as §1, §2, §3, §4, §5

[6] = target: KRAS G12V (Homo sapiens (Human), UniProt P01116+P62937, G12V); experiment: as above; format: biochemical; details: read-out: KRAS G12V FRET IC50
Method: as §1, §2, §3, §4, §5

[7] = target: KRAS G13C (Homo sapiens (Human), UniProt P01116+P62937, G13C); experiment: as above; format: biochemical; details: read-out: KRAS G13C FRET IC50
Method: as §1, §2, §3, §4, §5

[8] = target: KRAS WT (Homo sapiens (Human), UniProt P01116+P62937); experiment: as above; format: biochemical; details: read-out: KRAS WT FRET data IC50
Method: as §1, §2, §3, §4, §5

[9] = test system: K-Ras G12C (NCI-H358 cells); experiment: Potency assay: pERK in NCI-H358 cells; format: cell-based, human; details: read-out: pERK EC50 (H358 KRAS G12C)
Outline: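 Cells plated the day before were exposed for 4 h at 37° C, 5% CO2 to a 10-point, 3-fold DMSO dilution series (10 mM top stock), in duplicate. Phospho-ERK was read by AlphaLISA SureFire Ultra or by In-Cell Western with DRAQ5 DNA stain, and IC50 came from a 4-parameter sigmoidal fit.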

[10] = test system: NCI-H358 (K-Ras G12C); experiment: CellTiter-Glo cell viability assay, NCI-H358; format: cell-based, human
Outline: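 Cells seeded, compound added directly to plates; day 5: plates to RT ~30 min, CellTiter-Glo luminescence; (sample/avg DMSO)*100; 4-parameter fit.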

[11] = Homo sapiens, NCI-H358 cells, 4 hours
[12] = 5-day treatment; read-out: H358 Cell Viability assay data (K-Ras G12C, IC50)
[13] = Homo sapiens, NCI-H358, 120 h, 5-day treatment; read-out: H358 Cell Viability assay data (K-Ras G12C, IC50)

Sequence of KRAS G13D (P01116 other isoform, or with tags, fused parts or gaps G13D): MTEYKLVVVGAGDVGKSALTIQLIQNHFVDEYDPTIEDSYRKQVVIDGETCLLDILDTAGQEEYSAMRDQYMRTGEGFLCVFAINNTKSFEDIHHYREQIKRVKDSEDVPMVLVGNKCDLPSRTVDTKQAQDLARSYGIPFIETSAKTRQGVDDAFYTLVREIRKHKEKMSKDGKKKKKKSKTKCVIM
Sequence of KRAS G13D (P62937 whole entry): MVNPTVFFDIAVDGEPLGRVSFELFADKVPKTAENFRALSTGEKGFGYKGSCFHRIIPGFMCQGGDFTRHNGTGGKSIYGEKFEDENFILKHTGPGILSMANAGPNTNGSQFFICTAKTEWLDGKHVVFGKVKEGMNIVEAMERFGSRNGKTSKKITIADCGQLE
Sequence of NRAS G12C (P01111 whole entry G12C): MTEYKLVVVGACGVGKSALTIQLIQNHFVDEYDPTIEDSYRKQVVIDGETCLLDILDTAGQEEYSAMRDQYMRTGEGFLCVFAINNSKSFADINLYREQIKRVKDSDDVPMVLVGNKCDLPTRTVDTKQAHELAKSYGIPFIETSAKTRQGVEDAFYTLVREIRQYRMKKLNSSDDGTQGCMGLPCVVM
Sequence of NRAS G12C (P62937 whole entry): as the sequence (P62937 whole entry) above
Sequence of KRAS G12V (P01116 other isoform, or with tags, fused parts or gaps G12V): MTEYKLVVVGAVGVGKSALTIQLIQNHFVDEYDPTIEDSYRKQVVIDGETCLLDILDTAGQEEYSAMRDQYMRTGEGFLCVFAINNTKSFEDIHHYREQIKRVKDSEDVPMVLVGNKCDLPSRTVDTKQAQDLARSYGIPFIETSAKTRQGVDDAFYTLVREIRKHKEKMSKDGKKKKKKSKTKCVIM
Sequence of KRAS G12V (P62937 whole entry): as the sequence (P62937 whole entry) above
Sequence of KRAS G12D (P01116 other isoform, or with tags, fused parts or gaps G12D): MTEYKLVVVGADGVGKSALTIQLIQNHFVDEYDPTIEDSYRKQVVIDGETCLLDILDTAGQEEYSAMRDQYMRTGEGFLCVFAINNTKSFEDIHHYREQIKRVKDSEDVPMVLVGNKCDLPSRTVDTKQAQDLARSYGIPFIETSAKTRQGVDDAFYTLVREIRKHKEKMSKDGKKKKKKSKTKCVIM
Sequence of KRAS G12D (P62937 whole entry): as the sequence (P62937 whole entry) above
Sequence of KRAS G12S (P01116 other isoform, or with tags, fused parts or gaps G12S): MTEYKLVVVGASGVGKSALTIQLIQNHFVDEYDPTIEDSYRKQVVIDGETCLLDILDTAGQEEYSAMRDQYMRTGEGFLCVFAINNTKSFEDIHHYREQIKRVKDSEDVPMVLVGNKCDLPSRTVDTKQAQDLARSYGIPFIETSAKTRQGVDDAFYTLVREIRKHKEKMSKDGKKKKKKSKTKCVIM
Sequence of KRAS G12S (P62937 whole entry): as the sequence (P62937 whole entry) above
Sequence of KRAS WT (P01116 other isoform, or with tags, fused parts or gaps): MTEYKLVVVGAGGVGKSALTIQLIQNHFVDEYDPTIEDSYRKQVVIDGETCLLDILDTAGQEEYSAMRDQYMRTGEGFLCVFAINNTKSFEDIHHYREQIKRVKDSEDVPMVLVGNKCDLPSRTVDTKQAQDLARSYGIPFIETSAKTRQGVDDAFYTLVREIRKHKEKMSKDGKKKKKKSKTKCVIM
Sequence of KRAS WT (P62937 whole entry): as the sequence (P62937 whole entry) above
Sequence of KRAS G13C (P01116 other isoform, or with tags, fused parts or gaps G13C): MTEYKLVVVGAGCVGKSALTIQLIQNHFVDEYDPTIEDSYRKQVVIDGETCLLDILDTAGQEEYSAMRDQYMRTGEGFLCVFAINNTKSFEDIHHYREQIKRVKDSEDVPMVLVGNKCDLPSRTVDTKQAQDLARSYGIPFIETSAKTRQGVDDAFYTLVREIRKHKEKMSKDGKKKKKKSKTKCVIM
Sequence of KRAS G13C (P62937 whole entry): as the sequence (P62937 whole entry) above

Compound	IC50 [1] [µM]	IC50 ([3]; K-Ras G12V, 5-day treatment) [µM]	IC50 [4] [µM]	IC50 [5] [µM]	EC50 [9, 11] [µM]	IC50 [10, 13] [µM]	also measured
CCn1c(-c2cnccc2COC)c2c3cc(ccc31)-c1cc(O)cc(c1)C[C@H](NC(=O)[C@H](C(C)C)N(C)C(=O)[C@H]1CCN(C(C)C)C1)C(=O)N1CCC[C@H](N1)C(=O)OCC(C)(C)C2 [Compound A41]	0.01 to 0.1	–	–	–	–	–	IC50 [2]: 0.1 to 1 µM
CCn1c(-c2cccnc2COC)c2c3cc(ccc31)-c1cc(O)cc(c1)C[C@H](NC(=O)[C@H](C(C)C)N(C)C(=O)[C@H](N)CCCNC(=N)N)C(=O)N1CCC[C@H](N1)C(=O)OCC(C)(C)C2 [Compound A48]	0.1 to 1	–	–	–	–	–	–
CCn1c(-c2cccnc2[C@H](C)OC)c2c3cc(ccc31)-c1cc(O)cc(c1)C[C@H](NS(=O)(=O)N1CCC1)C(=O)N1CCC[C@H](N1)C(=O)OCC(C)(C)C2 [Compound A189]	> 10	> 10	> 10	> 10	–	–	IC50 [6]: > 10 µM; IC50 [7]: > 10 µM; IC50 [8]: > 10 µM; IC50 [2]: > 10 µM
CCn1c(-c2cccnc2[C@H](C)OC)c2c3cc(ccc31)-c1cc(O)cc(c1)C[C@H](NS(=O)(=O)C1CS(=O)(=O)C1)C(=O)N1CCC[C@H](N1)C(=O)OCC(C)(C)C2 [Compound A191]	> 10	> 10	> 10	> 10	–	–	IC50 [6]: > 10 µM; IC50 [7]: > 10 µM; IC50 [8]: > 10 µM; IC50 [2]: > 10 µM
CCn1c(-c2cccnc2[C@H](C)OC)c2c3cc(ccc31)-c1cc(O)cc(c1)C[C@H](NS(=O)(=O)c1ccc(O)cc1)C(=O)N1CCC[C@H](N1)C(=O)OCC(C)(C)C2 [Compound A195]	> 10	> 10	> 10	> 10	–	–	IC50 [6]: > 10 µM; IC50 [7]: > 10 µM; IC50 [8]: > 10 µM; IC50 [2]: > 10 µM
CCn1c(-c2cccnc2[C@H](C)OC)c2c3cc(ccc31)-c1cc(O)cc(c1)C[C@H](NS(=O)(=O)c1cn(C)c(C)n1)C(=O)N1CCC[C@H](N1)C(=O)OCC(C)(C)C2 [Compound A197]	> 10	> 10	> 10	> 10	< 5	–	IC50 [6]: > 10 µM
CC#CC(=O)N1CC[C@H](C(=O)N(C)[C@@H](C(=O)N[C@H]2Cc3cc(O)cc(c3)-c3ccc4c(c3)c(c(-c3cccnc3[C@H](C)OC)n4CC)CC(C)(C)COC(=O)[C@@H]3CCCN(N3)C2=O)C(C)C)C1 [Compound A199]	–	–	–	–	–	–	EC50 ([9]; Homo sapiens, NCI-H358, 4 h): < 5 µM; IC50 ([10]; read-out: H358 Cell Viability assay data (K-Ras G12C, IC50); 5-day treatment): 0.1 to 1 µM
CCn1c(-c2cccnc2[C@H](C)OC)c2c3cc(ccc31)-c1cc(O)cc(c1)C[C@H](NS(=O)(=O)CC1CC1)C(=O)N1CCC[C@H](N1)C(=O)OCC(C)(C)C2 [Compound A200]	> 10	–	> 10	> 10	–	–	IC50 [3]: 1 to 10 µM; IC50 [6]: > 10 µM
CCn1c(-c2cccnc2[C@H](C)OC)c2c3cc(ccc31)-c1cccc(c1)C[C@H](NC(=O)[C@H](C(C)C)N(C)C(=O)[C@H]1CCN(C(=O)/C=C/CN3CC(OC)C3)C1)C(=O)N1CCC[C@H](N1)C(=O)OCC(C)(C)C2 [Compound A203]	–	–	–	–	–	–	EC50 ([9]; NCI-H358 cells, 4 hours): < 5 µM; IC50 [10, 12]: > 10 µM
CCn1c(-c2cccnc2[C@H](C)OC)c2c3cc(ccc31)-c1cccc(c1)C[C@H](NC(=O)[C@H](C(C)C)N(C)C(=O)[C@H]1CCN(C(=O)/C=C/CN3CC(OC)C3)C1)C(=O)N1CCC[C@H](N1)C(=O)OCC(C)(C)C2 [Compound A204]	–	–	–	–	< 5	–	IC50 [10, 12]: 0.01 to 0.1 µM
CCn1c(-c2cccnc2[C@H](C)OC)c2c3cc(ccc31)-c1cc(O)cc(c1)C[C@H](NC(=O)[C@H](C(C)C)N(C)C(=O)C1(CO)CC1)C(=O)N1CCC[C@H](N1)C(=O)OCC(C)(C)C2 [Compound A232]	–	–	–	–	< 5	0.01 to 0.1	–
CCn1c(-c2cccnc2[C@H](C)OC)c2c3cc(ccc31)-c1cc(O)cc(c1)C[C@H](NC(=O)[C@H](C(C)C)N(C)C(=O)[C@@H]1CN(C(=O)OC)C[C@@H]1C)C(=O)N1CCC[C@H](N1)C(=O)OCC(C)(C)C2 [Compound A325]	0.01 to 0.1	0.01 to 0.1	0.01 to 0.1	0.01 to 0.1	–	–	IC50 [8]: 0.01 to 0.1 µM
C=CC(=O)N1CC[C@H](C(=O)N(C)[C@H](C(=O)N[C@H]2Cc3cc(sn3)-c3ccc4c(c3)c(c(-c3cccnc3[C@H](C)OC)n4CC)CC(C)(C)COC(=O)[C@@H]3CCCN(N3)C2=O)C(C)C)C1 [Compound A340]	–	–	–	–	< 5	0.1 to 1	–
CCn1c(-c2cccnc2[C@H](C)OC)c2c3cc(ccc31)-c1cc(O)cc(c1)C[C@H](NC(=O)[C@H](C(C)C)N(C)C(=O)[C@H]1CCN(C(=O)[C@@H]3CCCN3C)C1)C(=O)N1CCC[C@H](N1)C(=O)OCC(C)(C)C2 [Compound A385]	–	–	–	–	< 5	< 0.01	–
CCn1c(-c2cccnc2[C@H](C)OC)c2c3cc(ccc31)-c1cc(O)cc(c1)C[C@H](NC(=O)[C@H](C(C)C)N(C)C(=O)[C@@H]1CCN(C(=O)OC)[C@@H]1c1ccccc1)C(=O)N1CCC[C@H](N1)C(=O)OCC(C)(C)C2 [Compound A501]	0.01 to 0.1	0.1 to 1	0.01 to 0.1	–	< 5	–	IC50 [8]: 0.01 to 0.1 µM
CCn1c(-c2cccnc2[C@H](C)OC)c2c3cc(ccc31)-c1csc(n1)C[C@H](NC(=O)[C@H](C(C)C)N(C)C(=O)N1CC[C@@H]1CN(C)C)C(=O)N1CCC[C@H](N1)C(=O)OCC(C)(C)C2 [Compound A502]	–	0.1 to 1	–	–	< 5	< 0.01	–
CCn1c(-c2cccnc2[C@H](C)OC)c2c3cc(ccc31)-c1csc(n1)C[C@H](NC(=O)[C@H](C(C)C)N(C)C(=O)N1CC3(CC(O)C3)C1)C(=O)N1CCC[C@H](N1)C(=O)OCC(C)(C)C2 [Compound A510]	–	–	–	–	< 5	0.01 to 0.1	–
CCn1c(-c2cccnc2[C@H](C)OC)c2c3cc(ccc31)-c1csc(n1)C[C@H](NC(=O)[C@H](C(C)C)N(C)C(=O)N1CCN3CCOC[C@H]3C1)C(=O)N1CCC[C@H](N1)C(=O)OCC(C)(C)C2 [Compound A548]	–	0.01 to 0.1	–	–	–	0.1 to 1	–
CCn1c(-c2cccnc2[C@H](C)OC)c2c3cc(ccc31)-c1csc(n1)C[C@H](NC(=O)[C@H](C(C)C)N(C)C(=O)N1CC(N(C)S(C)(=O)=O)C1)C(=O)N1CCC[C@H](N1)C(=O)OCC(C)(C)C2 [Compound A550]	–	–	–	–	< 5	< 0.01	–
